Experimental data taken from ChEMBL document CHEMBL5465560, “Selectivity Literature for EUbOPEN Chemogenomic Library” (2024).

Tests used:
[1] = target: T1, Interleukin-1 receptor-associated kinase 3 (Homo sapiens) (UniProt Q9Y616); assay: Selectivity interaction (KinomeScan (DiscoverX)) EUB0001079a IRAK3; conditions: at 1 µM
T1 sequence (whole entry): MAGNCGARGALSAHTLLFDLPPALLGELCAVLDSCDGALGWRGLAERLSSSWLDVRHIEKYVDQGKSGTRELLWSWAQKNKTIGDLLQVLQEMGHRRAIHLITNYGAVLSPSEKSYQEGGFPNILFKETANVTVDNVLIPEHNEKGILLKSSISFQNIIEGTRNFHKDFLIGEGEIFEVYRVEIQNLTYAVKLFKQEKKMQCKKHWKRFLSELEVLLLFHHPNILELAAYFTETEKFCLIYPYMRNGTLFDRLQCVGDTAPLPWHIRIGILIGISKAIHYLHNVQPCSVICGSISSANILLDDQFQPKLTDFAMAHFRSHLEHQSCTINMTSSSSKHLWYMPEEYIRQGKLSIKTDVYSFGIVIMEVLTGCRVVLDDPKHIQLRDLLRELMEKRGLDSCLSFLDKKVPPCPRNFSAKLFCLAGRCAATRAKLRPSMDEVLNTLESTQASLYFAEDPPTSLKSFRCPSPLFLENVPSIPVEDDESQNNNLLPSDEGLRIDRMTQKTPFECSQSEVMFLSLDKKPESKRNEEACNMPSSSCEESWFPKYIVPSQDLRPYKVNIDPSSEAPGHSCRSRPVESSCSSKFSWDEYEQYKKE

[2] = target: Mitogen-activated protein kinase 11 (Homo sapiens) (UniProt Q15759); conditions: at 10 µM
Chain of Mitogen-activated protein kinase 11 (Homo sapiens) (Q15759 whole entry): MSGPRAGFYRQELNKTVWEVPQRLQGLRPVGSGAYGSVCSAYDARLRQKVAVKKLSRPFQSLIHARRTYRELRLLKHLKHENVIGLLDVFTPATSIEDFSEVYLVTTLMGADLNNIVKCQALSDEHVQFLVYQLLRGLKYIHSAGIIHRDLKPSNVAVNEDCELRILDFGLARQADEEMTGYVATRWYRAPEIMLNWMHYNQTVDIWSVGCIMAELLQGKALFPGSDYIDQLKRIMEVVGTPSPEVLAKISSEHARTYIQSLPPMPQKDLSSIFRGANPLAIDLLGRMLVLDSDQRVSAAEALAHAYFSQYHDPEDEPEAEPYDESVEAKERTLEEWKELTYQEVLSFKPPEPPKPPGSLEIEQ

[3] = target: Serine/threonine-protein kinase MARK2 (Homo sapiens) (UniProt Q7KZI7); assay: Selectivity interaction (ActivX KiNativ screen (kinase selectivity in THP-1 cell lysates)) EUB0000639a MARK2; type: subcellular; conditions: lysate, at 0.2 µM
Chain of Serine/threonine-protein kinase MARK2 (Homo sapiens) (Q7KZI7 whole entry): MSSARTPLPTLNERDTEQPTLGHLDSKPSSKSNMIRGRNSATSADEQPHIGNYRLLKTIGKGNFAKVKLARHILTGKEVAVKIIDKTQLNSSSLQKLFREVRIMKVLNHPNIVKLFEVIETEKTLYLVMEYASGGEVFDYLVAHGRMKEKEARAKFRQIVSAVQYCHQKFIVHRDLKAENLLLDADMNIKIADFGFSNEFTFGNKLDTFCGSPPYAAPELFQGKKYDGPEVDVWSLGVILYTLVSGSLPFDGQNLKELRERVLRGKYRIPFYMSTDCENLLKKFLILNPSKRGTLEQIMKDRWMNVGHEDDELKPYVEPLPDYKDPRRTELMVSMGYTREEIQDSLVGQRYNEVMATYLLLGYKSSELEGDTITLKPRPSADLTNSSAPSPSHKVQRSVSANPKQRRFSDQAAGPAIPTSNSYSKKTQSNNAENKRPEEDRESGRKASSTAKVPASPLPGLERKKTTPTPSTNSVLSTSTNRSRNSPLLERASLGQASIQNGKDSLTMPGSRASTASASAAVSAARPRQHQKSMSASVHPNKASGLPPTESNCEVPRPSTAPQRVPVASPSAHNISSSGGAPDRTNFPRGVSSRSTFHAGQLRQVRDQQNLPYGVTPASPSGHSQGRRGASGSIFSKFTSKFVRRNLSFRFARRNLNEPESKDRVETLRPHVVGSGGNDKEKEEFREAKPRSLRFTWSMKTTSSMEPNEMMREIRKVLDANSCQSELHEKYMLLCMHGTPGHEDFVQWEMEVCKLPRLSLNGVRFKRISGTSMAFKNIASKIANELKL

[4] = target: Serine/threonine-protein kinase OSR1 (Homo sapiens) (UniProt O95747); assay: Selectivity interaction (KinomeScan (DiscoverX)) EUB0000045b OXSR1
Chain of Serine/threonine-protein kinase OSR1 (Homo sapiens) (O95747 2-527 limits assumed): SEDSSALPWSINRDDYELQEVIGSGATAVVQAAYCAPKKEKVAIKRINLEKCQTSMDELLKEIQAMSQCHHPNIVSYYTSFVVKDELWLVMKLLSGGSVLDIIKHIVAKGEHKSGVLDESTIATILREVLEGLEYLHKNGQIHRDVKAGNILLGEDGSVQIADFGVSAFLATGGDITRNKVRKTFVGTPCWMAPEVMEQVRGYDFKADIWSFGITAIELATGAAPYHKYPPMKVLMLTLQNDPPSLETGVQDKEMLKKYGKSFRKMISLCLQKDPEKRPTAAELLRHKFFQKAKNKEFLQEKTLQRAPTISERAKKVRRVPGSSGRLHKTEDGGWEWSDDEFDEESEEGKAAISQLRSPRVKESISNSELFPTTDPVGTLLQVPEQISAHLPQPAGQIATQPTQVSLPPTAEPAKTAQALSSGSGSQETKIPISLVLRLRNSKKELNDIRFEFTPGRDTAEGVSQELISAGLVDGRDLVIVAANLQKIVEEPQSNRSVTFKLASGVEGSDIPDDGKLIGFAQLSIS

[5] = target: TRAF2 and NCK-interacting protein kinase (Homo sapiens) (UniProt Q9UKE5); conditions: at 10 µM
Chain of TRAF2 and NCK-interacting protein kinase (Homo sapiens) (Q9UKE5 whole entry, looked up, canonical isoform): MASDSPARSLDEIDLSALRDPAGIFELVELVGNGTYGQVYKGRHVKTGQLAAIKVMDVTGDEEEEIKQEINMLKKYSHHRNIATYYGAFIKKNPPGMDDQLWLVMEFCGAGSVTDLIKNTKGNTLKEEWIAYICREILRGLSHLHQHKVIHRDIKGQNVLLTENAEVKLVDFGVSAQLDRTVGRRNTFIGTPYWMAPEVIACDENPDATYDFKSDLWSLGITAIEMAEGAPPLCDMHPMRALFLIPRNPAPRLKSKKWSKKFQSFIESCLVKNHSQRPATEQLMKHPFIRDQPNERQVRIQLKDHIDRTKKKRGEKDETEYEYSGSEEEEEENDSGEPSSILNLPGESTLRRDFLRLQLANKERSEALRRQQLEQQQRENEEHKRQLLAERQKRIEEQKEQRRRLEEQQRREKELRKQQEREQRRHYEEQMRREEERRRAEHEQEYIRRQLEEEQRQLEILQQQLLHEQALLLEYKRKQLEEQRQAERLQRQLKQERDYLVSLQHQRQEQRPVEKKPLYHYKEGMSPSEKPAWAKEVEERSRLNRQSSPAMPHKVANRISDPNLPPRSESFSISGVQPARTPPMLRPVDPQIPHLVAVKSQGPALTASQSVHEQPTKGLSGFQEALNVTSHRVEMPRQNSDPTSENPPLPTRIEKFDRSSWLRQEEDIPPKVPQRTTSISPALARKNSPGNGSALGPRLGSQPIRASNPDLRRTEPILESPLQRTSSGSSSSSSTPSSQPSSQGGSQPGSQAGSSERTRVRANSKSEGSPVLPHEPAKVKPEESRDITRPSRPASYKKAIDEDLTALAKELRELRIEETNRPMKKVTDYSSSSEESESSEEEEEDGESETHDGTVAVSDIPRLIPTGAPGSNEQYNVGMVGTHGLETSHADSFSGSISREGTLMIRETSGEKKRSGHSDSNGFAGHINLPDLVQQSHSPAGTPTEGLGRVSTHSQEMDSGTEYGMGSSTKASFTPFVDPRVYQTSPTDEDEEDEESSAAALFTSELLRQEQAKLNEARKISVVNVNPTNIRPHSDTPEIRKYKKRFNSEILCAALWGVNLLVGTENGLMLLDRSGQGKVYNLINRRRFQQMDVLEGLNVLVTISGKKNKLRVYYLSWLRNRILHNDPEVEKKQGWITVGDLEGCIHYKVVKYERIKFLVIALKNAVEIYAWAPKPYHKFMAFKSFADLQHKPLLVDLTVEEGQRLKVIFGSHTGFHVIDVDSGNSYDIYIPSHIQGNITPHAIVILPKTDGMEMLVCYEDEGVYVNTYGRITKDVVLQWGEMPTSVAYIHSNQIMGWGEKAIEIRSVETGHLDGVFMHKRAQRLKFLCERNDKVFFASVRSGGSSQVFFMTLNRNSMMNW

[6] = target: Casein kinase I isoform delta (Homo sapiens, UniProt P48730); assay: Selectivity interaction (KinomeScan (DiscoverX)) EUB0001619a CSNK1D; conditions: at 1 µM
Chain of Casein kinase I isoform delta (P48730 whole entry, looked up, canonical isoform): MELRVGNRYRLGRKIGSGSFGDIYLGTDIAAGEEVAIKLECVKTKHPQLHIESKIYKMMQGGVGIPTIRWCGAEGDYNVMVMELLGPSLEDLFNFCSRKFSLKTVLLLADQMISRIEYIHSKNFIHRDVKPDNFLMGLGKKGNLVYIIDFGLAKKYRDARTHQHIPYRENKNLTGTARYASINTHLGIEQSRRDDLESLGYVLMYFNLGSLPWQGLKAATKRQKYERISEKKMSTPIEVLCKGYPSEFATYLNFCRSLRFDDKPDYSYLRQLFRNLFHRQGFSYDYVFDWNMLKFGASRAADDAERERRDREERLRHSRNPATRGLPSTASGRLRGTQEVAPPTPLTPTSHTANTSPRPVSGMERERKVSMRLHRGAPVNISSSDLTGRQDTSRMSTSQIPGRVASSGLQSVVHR

[7] = target: Casein kinase I isoform alpha (Homo sapiens, UniProt P48729); assay: Selectivity interaction (KinomeScan (DiscoverX)) EUB0001619a CSNK1A1; conditions: at 1 µM
Chain of Casein kinase I isoform alpha (P48729 2-337 limits assumed): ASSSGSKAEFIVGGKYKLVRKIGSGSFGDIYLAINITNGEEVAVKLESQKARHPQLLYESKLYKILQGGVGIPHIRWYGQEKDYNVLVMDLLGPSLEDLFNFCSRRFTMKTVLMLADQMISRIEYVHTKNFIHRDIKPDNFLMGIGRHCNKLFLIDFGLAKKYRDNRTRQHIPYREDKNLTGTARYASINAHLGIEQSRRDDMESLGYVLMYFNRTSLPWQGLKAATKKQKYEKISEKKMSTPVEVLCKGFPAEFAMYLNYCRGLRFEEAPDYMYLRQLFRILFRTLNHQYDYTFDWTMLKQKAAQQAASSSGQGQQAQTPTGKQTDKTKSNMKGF

[8] = target: Homeodomain-interacting protein kinase 3 (Homo sapiens, UniProt Q9H422); assay: Selectivity interaction (Upstate Kinase Profiler service (Millipore)) EUB0000056c HIPK3; conditions: at 1 µM
[9] = target: T2, Serine/threonine-protein kinase 17B (Homo sapiens) (UniProt O94768); assay: Selectivity interaction (KinomeScan (DiscoverX)) EUB0000655a STK17B; conditions: at 10 µM
T2 sequence (whole entry): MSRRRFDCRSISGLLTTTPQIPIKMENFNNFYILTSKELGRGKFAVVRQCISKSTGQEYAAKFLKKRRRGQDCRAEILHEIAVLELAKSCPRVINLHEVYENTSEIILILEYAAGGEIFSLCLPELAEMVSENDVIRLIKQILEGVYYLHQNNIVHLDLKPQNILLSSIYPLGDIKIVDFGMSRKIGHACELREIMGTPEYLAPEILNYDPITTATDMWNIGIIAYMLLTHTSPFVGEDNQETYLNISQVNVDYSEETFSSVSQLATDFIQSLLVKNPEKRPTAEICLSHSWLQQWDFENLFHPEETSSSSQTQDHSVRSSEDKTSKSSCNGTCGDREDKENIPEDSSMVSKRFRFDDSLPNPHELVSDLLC

[10] = target: T3, Serine/threonine-protein kinase Nek1 (Homo sapiens) (UniProt Q96PY6); assay: Selectivity interaction (KinomeScan (DiscoverX)) EUB0000655a NEK1; conditions: at 10 µM
T3 sequence (whole entry): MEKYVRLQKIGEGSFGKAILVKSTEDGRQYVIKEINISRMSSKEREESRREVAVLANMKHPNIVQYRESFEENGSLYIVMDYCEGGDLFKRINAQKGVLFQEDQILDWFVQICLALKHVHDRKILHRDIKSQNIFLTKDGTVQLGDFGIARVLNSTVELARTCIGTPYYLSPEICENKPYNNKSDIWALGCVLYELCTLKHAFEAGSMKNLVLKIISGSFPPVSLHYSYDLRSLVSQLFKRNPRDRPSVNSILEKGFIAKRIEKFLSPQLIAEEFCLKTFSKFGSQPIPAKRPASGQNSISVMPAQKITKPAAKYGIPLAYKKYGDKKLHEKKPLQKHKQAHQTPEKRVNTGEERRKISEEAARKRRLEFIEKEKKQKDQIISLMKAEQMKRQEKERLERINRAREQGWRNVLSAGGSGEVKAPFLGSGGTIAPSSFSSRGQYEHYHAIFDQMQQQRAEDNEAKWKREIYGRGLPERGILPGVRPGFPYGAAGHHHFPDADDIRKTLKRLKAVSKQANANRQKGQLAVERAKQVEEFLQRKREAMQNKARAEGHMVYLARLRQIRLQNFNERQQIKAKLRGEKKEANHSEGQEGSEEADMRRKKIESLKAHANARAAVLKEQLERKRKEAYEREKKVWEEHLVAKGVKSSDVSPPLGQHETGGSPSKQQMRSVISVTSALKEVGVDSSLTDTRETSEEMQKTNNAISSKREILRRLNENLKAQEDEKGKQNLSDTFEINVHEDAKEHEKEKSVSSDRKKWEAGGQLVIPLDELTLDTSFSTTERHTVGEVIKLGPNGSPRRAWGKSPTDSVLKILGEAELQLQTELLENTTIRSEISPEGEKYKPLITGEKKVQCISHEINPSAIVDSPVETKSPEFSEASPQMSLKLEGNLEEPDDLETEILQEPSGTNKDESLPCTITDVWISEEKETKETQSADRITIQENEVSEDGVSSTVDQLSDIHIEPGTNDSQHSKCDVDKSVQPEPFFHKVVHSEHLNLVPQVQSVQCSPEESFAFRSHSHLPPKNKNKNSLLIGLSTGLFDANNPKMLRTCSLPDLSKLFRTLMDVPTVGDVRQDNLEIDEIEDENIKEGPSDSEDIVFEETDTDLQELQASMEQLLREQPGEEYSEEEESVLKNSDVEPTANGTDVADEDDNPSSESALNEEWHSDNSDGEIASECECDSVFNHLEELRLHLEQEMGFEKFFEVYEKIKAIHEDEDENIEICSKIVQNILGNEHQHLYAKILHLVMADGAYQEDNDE

[11] = target: Cell division control protein 42 homolog (Homo sapiens) (UniProt P60953); assay: Selectivity interaction (SelectScreen profiling (Invitrogen)) EUB0000607a CDC42; conditions: at 2 µM
Chain of Cell division control protein 42 homolog (Homo sapiens) (P60953 whole entry, looked up): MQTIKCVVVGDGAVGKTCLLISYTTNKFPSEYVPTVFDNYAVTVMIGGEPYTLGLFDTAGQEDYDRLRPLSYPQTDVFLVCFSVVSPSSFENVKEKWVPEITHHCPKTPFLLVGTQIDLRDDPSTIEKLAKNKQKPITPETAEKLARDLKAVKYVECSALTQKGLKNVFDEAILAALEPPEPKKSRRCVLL

## Nc1cnc(N2CCc3cc(S(=O)(=O)Nc4c(F)cc(Cl)cc4F)cc(N4CCCC4=O)c32)nc1 [TP-020n]
[1]
  % of control: 89%

## CCN(CC)CCCCNc1ncc2cc(-c3cc(OC)cc(OC)c3)c(NC(=O)NC(C)(C)C)nc2n1
[2]
  % of control: 100%

## CC[C@@H]1[C@H](F)C(=O)N[C@@H]1COc1nccc2cc(C(N)=O)c(OC)cc12 [ZIMLOVISERTIB]
[3]
  % of inhibition: 2.7%

## C=CC(=O)Nc1cc(-n2c(=O)ccc3cnc4ccc(-c5ccc(NS(C)(=O)=O)cc5)cc4c32)ccc1C
[4]; at 1 µM
  % of control: 100%
[4]; at 10 µM
  % of control: 94%

## Cc1cc([C@@H](C)Nc2ccccc2C(=O)O)c2nc(N3CCOCC3)cc(=O)n2c1 [AZD-6482]
[5]
  % of control: 98%

## N#Cc1cccc(-c2c[nH]c3ncnc(N4CCOCC4)c23)c1
[6]
  % of control: 100%
[7]
  % of control: 100%

## Cc1ccc(-c2ccc3c(ccc4sc5c(c43)NC[C@@H](C)NC5=O)n2)cn1
[8]
  % of inhibition: -11%

## CN(C)CCOc1ccc(-c2nc(-c3ccncc3)c(-c3ccc4c(c3)CC/C4=N\O)[nH]2)cc1
[9]
  % of control: 87%
[10]
  % of control: 87%

## CNC(=O)Nc1ccc(-c2nc(N3CC4CCC(C3)O4)c3cnn(C4CCC5(CC4)OCCO5)c3n2)cc1
[11]
  % of inhibition: 7%
